Assay results reported in the supplement of paper PMC10307832.

compound: CC(C)=CC[C@@H](O)C1=CC(=O)c2c(O)ccc(O)c2C1=O [Shikonin] + CCNC(=O)c1noc(-c2cc(C(C)C)c(O)cc2O)c1-c1ccc(CN2CCOCC2)cc1 [Luminespib] (partner 0.01 µM); experiment: relative viability (nuclei count vs DMSO), 5 days (fraction); higher = more cells survive; conditions: first compound 0.01 µM
In short: (§1)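 Relative viability was taken as the ratio of nuclei in treated wells to nuclei in vehicle wells. Lung cancer cell lines in 1536-well plates received compounds by pin tool one day after seeding, either one drug alone or a fixed anchor-drug dose plus five library-drug doses (not always all listed) in √10 steps. Nuclei were counted on 4× images after 5 days of treatment, and values are medians of duplicate plates.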

Cell Line	relative viability
A-427	0.743
NCI-H460	0.0384
NCI-H838	0.369
NCI-H1734	0.173
NCI-H596	1.14
NCI-H2405	0.698
NCI-H1395	0.672
201T	0.971
NCI-H1915	1
HCC-827	0.518
LXF-289	0.721
NCI-H2347	0.573
NCI-H661	0.951
CAL-12T	0.473
NCI-H1651	0.914
EPLC-272H	0.167
NCI-H23	0.226

Cell Line	relative viability
NCI-H1355	0.724
NCI-H322M	0.942
NCI-H1437	1.17
NCI-H1755	0.428
NCI-H2085	0.443
HCC-15	0.358
NCI-H1793	0.164
RERF-LC-KJ	1.2
EKVX	0.907
LC-2-ad	0.934
NCI-H1944	0.704
NCI-H1975	0.178
SW 1573	0.494
ABC-1	0.713
NCI-H358	0.467
NCI-H727	0.412
SK-LU-1	0.212

same assay, conditions: first compound 0.1 µM

Cell Line	relative viability
A-427	1.21
NCI-H460	0.034
NCI-H838	0.237
NCI-H1734	0.199
NCI-H596	1.22
NCI-H2405	0.745
NCI-H1395	0.793
201T	1.13
NCI-H1915	0.758
HCC-827	0.887
LXF-289	0.625
NCI-H2347	0.477
NCI-H661	1.06
CAL-12T	0.415
NCI-H1651	0.821
EPLC-272H	0.303
NCI-H23	0.196

Cell Line	relative viability
NCI-H1355	0.795
NCI-H322M	0.855
NCI-H1437	1.18
NCI-H1755	0.439
NCI-H2085	0.471
HCC-15	0.888
NCI-H1793	0.196
RERF-LC-KJ	1.29
EKVX	0.892
LC-2-ad	1.11
NCI-H1944	0.613
NCI-H1975	0.27
SW 1573	0.201
ABC-1	0.753
NCI-H358	0.369
NCI-H727	0.462
SK-LU-1	0.215

same assay, conditions: first compound 0.3162 µM

Cell Line	relative viability
A-427	0.814
NCI-H460	0.0299
NCI-H838	0.317
NCI-H1734	0.216
NCI-H596	1.16
NCI-H2405	0.665
NCI-H1395	0.744
201T	1.03
NCI-H1915	0.849
HCC-827	0.638
LXF-289	0.604
NCI-H2347	0.471
NCI-H661	0.932
CAL-12T	0.257
NCI-H1651	0.714
EPLC-272H	0.209
NCI-H23	0.227

Cell Line	relative viability
NCI-H1355	0.79
NCI-H322M	0.82
NCI-H1437	1.1
NCI-H1755	0.576
NCI-H2085	0.336
HCC-15	0.242
NCI-H1793	0.155
RERF-LC-KJ	1.2
EKVX	0.915
LC-2-ad	1.08
NCI-H1944	0.889
NCI-H1975	0.248
SW 1573	0.232
ABC-1	0.4
NCI-H358	0.246
NCI-H727	0.233
SK-LU-1	0.198

same assay, conditions: first compound 1 µM

Cell Line	relative viability
A-427	0.88
NCI-H460	0.0321
NCI-H838	0.258
NCI-H1734	0.131
NCI-H596	1.13
NCI-H2405	0.644
NCI-H1395	0.655
201T	1.07
NCI-H1915	0.85
HCC-827	0.64
LXF-289	0.814
NCI-H2347	0.526
NCI-H661	0.858
CAL-12T	0.42
NCI-H1651	0.984
EPLC-272H	0.261
NCI-H23	0.143

Cell Line	relative viability
NCI-H1355	0.714
NCI-H322M	0.847
NCI-H1437	1.1
NCI-H1755	0.378
NCI-H2085	0.379
HCC-15	0.402
NCI-H1793	0.535
RERF-LC-KJ	1.11
EKVX	0.922
LC-2-ad	1.07
NCI-H1944	0.8
NCI-H1975	0.167
SW 1573	0.0929
ABC-1	0.17
NCI-H358	0.334
NCI-H727	0.329
SK-LU-1	0.187

compound: CC(C)=CC[C@@H](O)C1=CC(=O)c2c(O)ccc(O)c2C1=O [Shikonin] + Cc1nc(Nc2ncc(C(=O)Nc3c(C)cccc3Cl)s2)cc(N2CCN(CCO)CC2)n1 [Dasatinib] (partner 0.075 µM); experiment: as above; conditions: first compound 0.01 µM
In short: as §1

Cell Line	relative viability
A-427	0.877
NCI-H460	0.509
NCI-H838	0.314
NCI-H1734	0.512
NCI-H596	0.585
NCI-H2405	0.206
NCI-H1395	0.376
201T	0.561
NCI-H1915	0.316
HCC-827	0.266
LXF-289	0.213
NCI-H2347	0.268
NCI-H661	0.866
CAL-12T	0.557
NCI-H1651	0.385
EPLC-272H	0.34
NCI-H23	0.643

Cell Line	relative viability
NCI-H1355	0.6
NCI-H322M	0.237
NCI-H1437	0.377
NCI-H1755	0.484
NCI-H2085	0.229
HCC-15	0.637
NCI-H1793	0.419
RERF-LC-KJ	0.991
EKVX	0.554
LC-2-ad	0.528
NCI-H1944	0.193
NCI-H1975	0.354
SW 1573	0.591
ABC-1	0.603
NCI-H358	0.145
NCI-H727	0.391
SK-LU-1	0.164

same assay, conditions: first compound 0.1 µM

Cell Line	relative viability
A-427	0.801
NCI-H460	0.762
NCI-H838	0.284
NCI-H1734	0.499
NCI-H596	0.59
NCI-H2405	0.235
NCI-H1395	0.403
201T	0.661
NCI-H1915	0.35
HCC-827	0.357
LXF-289	0.214
NCI-H2347	0.351
NCI-H661	0.856
CAL-12T	0.333
NCI-H1651	0.391
EPLC-272H	0.322
NCI-H23	0.883

Cell Line	relative viability
NCI-H1355	0.676
NCI-H322M	0.271
NCI-H1437	0.385
NCI-H1755	0.46
NCI-H2085	0.248
HCC-15	0.799
NCI-H1793	0.376
RERF-LC-KJ	0.975
EKVX	0.442
LC-2-ad	0.586
NCI-H1944	0.247
NCI-H1975	0.344
SW 1573	0.546
ABC-1	0.685
NCI-H358	0.189
NCI-H727	0.397
SK-LU-1	0.191

same assay, conditions: first compound 0.3162 µM

Cell Line	relative viability
A-427	0.721
NCI-H460	0.556
NCI-H838	0.262
NCI-H1734	0.538
NCI-H596	0.566
NCI-H2405	0.256
NCI-H1395	0.45
201T	0.579
NCI-H1915	0.3
HCC-827	0.316
LXF-289	0.231
NCI-H2347	0.296
NCI-H661	0.816
CAL-12T	0.356
NCI-H1651	0.37
EPLC-272H	0.315
NCI-H23	0.78

Cell Line	relative viability
NCI-H1355	0.721
NCI-H322M	0.261
NCI-H1437	0.367
NCI-H1755	0.499
NCI-H2085	0.221
HCC-15	0.66
NCI-H1793	0.381
RERF-LC-KJ	0.834
EKVX	0.5
LC-2-ad	0.418
NCI-H1944	0.196
NCI-H1975	0.344
SW 1573	0.444
ABC-1	0.552
NCI-H358	0.148
NCI-H727	0.344
SK-LU-1	0.182

same assay, conditions: first compound 1 µM

Cell Line	relative viability
A-427	0.658
NCI-H460	0.605
NCI-H838	0.333
NCI-H1734	0.477
NCI-H596	0.641
NCI-H2405	0.256
NCI-H1395	0.449
201T	0.615
NCI-H1915	0.341
HCC-827	0.344
LXF-289	0.229
NCI-H2347	0.2
NCI-H661	0.983
CAL-12T	0.302
NCI-H1651	0.438
EPLC-272H	0.398
NCI-H23	0.944

Cell Line	relative viability
NCI-H1355	0.787
NCI-H322M	0.27
NCI-H1437	0.531
NCI-H1755	0.475
NCI-H2085	0.222
HCC-15	0.65
NCI-H1793	0.461
RERF-LC-KJ	0.661
EKVX	0.618
LC-2-ad	0.893
NCI-H1944	0.158
NCI-H1975	0.359
SW 1573	0.144
ABC-1	0.301
NCI-H358	0.157
NCI-H727	0.241
SK-LU-1	0.186

compound: CC(C)N(CCCNC(=O)Nc1ccc(C(C)(C)C)cc1)C[C@H]1O[C@@H](n2ccc3c(N)ncnc32)[C@H](O)[C@@H]1O + Cc1cc(Nc2cc(N3CCN(C)CC3)nc(Sc3ccc(NC(=O)C4CC4)cc3)n2)n[nH]1 [Tozasertib] (partner 0.1 µM); experiment: as above; conditions: first compound 0.08 µM
In short: as §1

Cell Line	relative viability
A-427	0.2
NCI-H460	0.402
NCI-H838	0.258
NCI-H1734	0.265
NCI-H596	0.905
NCI-H2405	0.706
NCI-H1395	0.727
201T	0.871
NCI-H1915	0.443
HCC-827	0.423
LXF-289	0.167
NCI-H2347	0.51
NCI-H661	0.365
CAL-12T	0.326
NCI-H1651	0.624
